Test [1] has as its target T1, PknB (Mycobacterium tuberculosis, UniProt P9WI81).
T1 construct: made in house
Description: biochemical. Also on record: species or system M. tuberculosis. The settings on record: 3 nM PknB, 6 uM GarA, 3 μM ATP, 30 min, competitive tight-binding fit, several symbols in a cell = repeat determinations; for Ki: read-out: Ki Values.

Test [2] has as its system Mycobacterium tuberculosis H37Ra. Kind of test: Mycobacterium tuberculosis growth inhibition assay (microtiter dilution, resazurin reduction). In kind it is cell-based. The settings on record: 7H9 broth, 9 days + 24 h resazurin, lowest concentration inhibiting resazurin reduction by >70%, several symbols in a cell = repeat determinations. Summed up: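 Resazurin-based microtiter dilution MIC: compounds in 7- or 11-step two-fold series with ~1×10^6 cells/mL H37Ra in 7H9/10% ADC, 9 days at 37 °C, then 24 h with dye. MIC is the lowest concentration giving >70% inhibition of resazurin reduction relative to DMSO controls, by 492/595 nm fluorescence.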

T1 sequence (P9WI81 whole entry): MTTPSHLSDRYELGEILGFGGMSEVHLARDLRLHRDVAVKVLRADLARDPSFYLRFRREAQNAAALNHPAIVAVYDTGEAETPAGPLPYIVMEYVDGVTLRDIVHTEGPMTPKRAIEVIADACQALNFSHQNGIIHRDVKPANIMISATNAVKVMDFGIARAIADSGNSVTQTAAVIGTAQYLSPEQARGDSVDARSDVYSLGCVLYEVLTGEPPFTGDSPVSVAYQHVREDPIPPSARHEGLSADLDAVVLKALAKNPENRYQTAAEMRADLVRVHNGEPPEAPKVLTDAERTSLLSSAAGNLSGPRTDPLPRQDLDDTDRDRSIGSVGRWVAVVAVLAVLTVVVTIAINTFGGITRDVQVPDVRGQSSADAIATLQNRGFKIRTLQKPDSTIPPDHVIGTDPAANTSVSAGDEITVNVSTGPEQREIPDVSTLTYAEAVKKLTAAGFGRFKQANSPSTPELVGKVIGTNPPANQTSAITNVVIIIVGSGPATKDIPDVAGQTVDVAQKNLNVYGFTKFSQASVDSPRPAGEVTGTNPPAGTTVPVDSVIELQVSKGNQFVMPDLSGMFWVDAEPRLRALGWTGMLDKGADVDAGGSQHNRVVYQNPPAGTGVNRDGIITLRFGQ

On to `C#Cc1cnc(-c2ccc(C(C)(C)O)s2)nc1Nc1cc(C2CC2)[nH]n1` [Compound 180, 2-(5-(4-(5-Cyclopropyl-1H-pyrazol-3-ylamino)-5-ethynylpyrimidin-2-yl)thiophen-2-yl)propan-2-ol], for which, in test [1], the Ki lay within 10 to 50 nM. In addition, the MIC values result in test [2] is reported as “B++”.
For `CN(C)S(=O)(=O)c1ccc(Nc2nccc(Nc3cc(C4CC4)n[nH]3)n2)cc1` [Compound 103, 4-(4-(3-cyclopropyl-1H-pyrazol-5-ylamino)pyrimidin-2-ylamino)N,N-dimethylbenzenesulfonamide], in test [1], the “Ki Values” is “A**, A*”. In addition, the MIC values entry in test [2] was “B++, B+”.
Regarding `Cc1cnc(-c2ccc(CO)s2)nc1Nc1cc(C2CC2)[nH]n1` [Compound 36, [5-[4-[(5-cyclopropyl-1H-pyrazol-3-yl)amino]-5-methyl-pyrimidin-2-yl]-2-thienyl]methanol], the Ki in test [1] fell in the range of 50 to 100 nM. Moreover, the MIC values entry in test [2] is on record as “B++, B+”.
For `C#Cc1cnc(-c2ccc(C(C)(C)C#N)s2)nc1Nc1cc(C2CC2)[nH]n1` [Compound 237, 2-[5-[4-[(5-cyclopropyl-1H-pyrazol-3-yl)amino]-5-ethynyl-pyrimidin-2-yl]-2-thienyl]-2-methyl-propanenitrile], the Ki in test [1] is 1 to 10 nM. The MIC values result in test [2] was “B++”.
Consider `O=[N+]([O-])c1ccc(-c2ncc(Cl)c(Nc3cc(C4CC4)[nH]n3)n2)o1` [Compound 222, 5-chloro-N-(5-cyclopropyl-1H-pyrazol-3-yl)-2-(5-nitrofuran-2-yl)pyrimidin-4-amine], for which, in test [1], the Ki was in the range of 1 to 10 nM. The MIC values entry in test [2] is “A+, A”.
The like results for `C#Cc1c(C)nc(-c2ccc(S(=O)(=O)NC(C)(C)C)s2)nc1Nc1cc(C2CC2)[nH]n1` [Compound 268, 5-[4-[(5-cyclopropyl-1H-pyrazol-3-yl)amino]-5-ethynyl-6-methyl-pyrimidin-2-yl]-N-tert-butyl-thiophene-2-sulfonamide] were, in that order, 10 to 50 nM and “B++”.
In the case of `COc1cnc(N2CCN(C)CC2)nc1Nc1cc(C2CC2)[nH]n1` [Compound 67, N-(5-cyclopropyl-1H-pyrazol-3-yl)-5-methoxy-2-(4-methylpiperazin-1-yl)-pyrimidin-4-amine], in test [1], the inhibition constant Ki fell in the range of 10 to 50 nM. In addition, the MIC values entry in test [2] is “A+”.
For the compound `NS(=O)(=O)c1cccc(-c2ncc(O)c(Nc3cc(C4CC4)n[nH]3)n2)c1` [Compound 99, 3-(4-(3-cyclopropyl-1H-pyrazol-5-ylamino)-5-hydroxypyrimidin-2-yl)benzenesulfonamide], the Ki in test [1] fell in the range of 10 to 50 nM. Also, the MIC values entry in test [2] is “B+, B”.
Consider `O=C(O)c1ccc(Nc2ncc(Cl)c(Nc3cc(C4CC4)[nH]n3)n2)cc1` [Compound 77, 4-[[5-chloro-4-[(5-cyclopropyl-1H-pyrazol-3-yl)amino]-pyrimidin-2-yl]amino]benzoic acid], for which the Ki in test [1] was 100 to 500 nM. Also, in test [2], the MIC values result was “B, C”.
As for `COc1cc(Nc2cc(C3CC3)n[nH]2)nc(-c2ccc(S(N)(=O)=O)s2)n1` [Compound 293, 5-[4-[(5-cyclopropyl-2H-pyrazol-3-yl)amino]-6-methoxy-pyrimidin-2-yl]thiophene-2-sulfonamide], the inhibition constant Ki in test [1] fell in the range of 100 to 500 nM. Also, in test [2], the MIC values entry is recorded as “B++”.
The like results for `CNS(=O)(=O)c1ccc(-c2ncc(F)c(Nc3cc(C4CC4)[nH]n3)n2)s1` [Compound 43, 5-[4-[(5-cyclopropyl-1H-pyrazol-3-yl)amino]-5-fluoro-pyrimidin-2-yl]-N-methyl-thiophene-2-sulfonamide] were, in that order, 1 to 10 nM and “B++”.
As to `CS(=O)(=O)Nc1cccc(-c2ncc(Cl)c(Nc3cc(C4CC4)[nH]n3)n2)c1` [Compound 107, N-[3-[5-chloro-4-[(5-cyclopropyl-1H-pyrazol-3-yl)amino]pyrimidin-2-yl]phenyl]methanesulfonamide], the Ki in test [1] lay in the range of 50 to 100 nM. Further, in test [2], the MIC values entry is recorded as “B++, B+”.
The like results for `Cc1cc(Nc2cc(C3CC3)[nH]n2)nc(-c2ccc(S(N)(=O)=O)s2)n1` [Compound 265, 5-[4-[(5-cyclopropyl-1H-pyrazol-3-yl)amino]-6-methyl-pyrimidin-2-yl]thiophene-2-sulfonamide] were, in that order, 1 to 10 nM and “B++”.
For `O=[N+]([O-])c1csc(-c2ncc(Cl)c(Nc3cc(C4CC4)[nH]n3)n2)c1` [Compound 204, 5-chloro-N-(5-cyclopropyl-1H-pyrazol-3-yl)-2-(4-nitrothiophen-2-yl)pyrimidin-4-amine], in test [1], the Ki was 10 to 50 nM. For the same compound, in test [2], the MIC values result is “B+”.
As for `COCCNS(=O)(=O)c1ccc(-c2ncc(Cl)c(Nc3cc(C4CC4)[nH]n3)n2)s1` [Compound 88, 5-(5-chloro-4-(5-cyclopropyl-1H-pyrazol-3-ylamino)pyrimidin-2-yl)-N-(2-methoxyethyl)thiophene-2-sulfonamide], the Ki in test [1] lay within 10 to 50 nM. The MIC values entry in test [2] is on record as “B+, C”.
As for `C#Cc1cnc(-c2ccc([C@H](O)CCC)s2)nc1Nc1cc(C2CC2)n[nH]1` [Compound 215, 1-[5-[4-[(5-cyclopropyl-2H-pyrazol-3-yl)amino]-5-ethynyl-pyrimidin-2-yl]-2-thienyl]butan-1-ol], the “Ki Values” in test [1] is recorded as “A**, A**, A*”. The MIC values result in test [2] is “B++”.
`OCc1cnc(-c2ccccc2)nc1Nc1cc(C2CC2)n[nH]1` [Compound 123, (4-(5-cyclopropyl-1H-pyrazol-3-ylamino)-2-phenylpyrimidin-5-yl)methanol]: in test [1], the Ki fell in the range of 100 to 500 nM. Further, the MIC values entry in test [2] is “B, C”.
Consider `N#CCc1ccc(Nc2nccc(Nc3cc(C4CC4)[nH]n3)n2)cc1` [Compound 1, 2-(4-(4-(5-cyclopropyl-1H-pyrazol-3-ylamino)pyrimidin-2-ylamino)phenyl)acetonitrile], for which, in test [1], the Ki was 10 to 50 nM. Further, the MIC values entry in test [2] is given as “BM, B”.
For the compound `CC(=O)c1cccc(-c2nccc(Nc3cc(C4CC4)[nH]n3)n2)c1` [Compound 317, 1-[3-[4-[(5-cyclopropyl-1H-pyrazol-3-yl)amino]pyrimidin-2-yl]phenyl]ethanone], the inhibition constant (Ki) in test [1] lay in the range of 10 to 50 nM. The MIC values result in test [2] is listed as “B+”.
For `O=S(=O)(NCCO)c1ccc(Nc2nccc(Nc3cc(C4CC4)n[nH]3)n2)cc1` [Compound 83, 4-[[4-[(5-cyclopropyl-2H-pyrazol-3-yl)amino]pyrimidin-2-yl]amino]-N-(2-hydroxyethyl)benzenesulfonamide], the “Ki Values” in test [1] is recorded as “A**, A*”. Besides, the MIC values result in test [2] is listed as “B+”.
In the case of `NC(=S)c1ncc(Cl)c(Nc2cc(C3CC3)[nH]n2)n1` [Compound 305, 5-chloro-4-[(5-cyclopropyl-1H-pyrazol-3-yl)amino]-pyrimidine-2-carbothioamide], in test [1], the inhibitory constant (Ki) was in the range of 500 to 1000 nM. Moreover, the MIC values entry in test [2] is listed as “A, B++”.
Regarding `C#Cc1cnc(-c2ccc(S(=O)(=O)NC(C)=O)s2)nc1Nc1cc(C2CC2)[nH]n1` [Compound 192, N-(5-(4-(5-cyclopropyl-1H-pyrazol-3-ylamino)-5-ethynylpyrimidin-2-yl)thiophen-2-ylsulfonyl)acetamide], the Ki in test [1] fell in the range of 100 to 500 nM. The MIC values entry in test [2] was “B, C”.
For `C#Cc1cnc(-c2ccc([C@H](O)C(C)C)s2)nc1Nc1cc(C2CC2)n[nH]1` [Compound 214, 1-[5-[4-[(5-cyclopropyl-2H-pyrazol-3-yl)amino]-5-ethynyl-pyrimidin-2-yl]-2-thienyl]-2-methyl-propan-1-ol], in test [1], the “Ki Values” is given as “A**, A**, A*”. In test [2], the MIC values result was “B++”.
With `COCCNS(=O)(=O)c1ccc(Nc2nccc(Nc3cc(C4CC4)n[nH]3)n2)cc1` [Compound 112, 4-[[4-[(5-cyclopropyl-2H-pyrazol-3-yl)amino]pyrimidin-2-yl]amino]-N-(2-methoxyethyl)benzenesulfonamide], the Ki in test [1] fell in the range of 10 to 50 nM. In test [2], the MIC values result is recorded as “B+”.
The like results for `C#Cc1cnc(-c2ccc(S(=O)(=O)NCCO)s2)nc1Nc1cc(C2CC2)[nH]n1` [Compound 108, 5-(4-(3-cyclopropyl-1H-pyrazol-5-ylamino)-5-ethynylpyrimidin-2-yl)-N-(2-hydroxyethyl)thiophene-2-sulfonamide] were, in that order, 1 to 10 nM and “B+”.
For `CC(=O)OC/C=C/c1cnc(-c2ccccc2)nc1Nc1cc(C2CC2)[nH]n1` [Compound 81, (E)-3-(4-(5-cyclopropyl-1H-pyrazol-3-ylamino)-2-phenylpyrimidin-5-yl)allyl acetate], the Ki in test [1] fell in the range of 100 to 500 nM. Moreover, in test [2], the MIC values result is listed as “B++, B+”.
For the compound `O=[N+]([O-])c1ccc(-c2ncc(Cl)c(Nc3cc(C4CC4)[nH]n3)n2)s1` [Compound 203, 5-Chloro-N-(5-cyclopropyl-1H-pyrazol-3-yl)-2-(5-nitrothiophen-2-yl)pyrimidin-4-amine], the Ki in test [1] lay in the range of 1 to 10 nM. The MIC values result in test [2] is on record as “A+, A”.
`[H]/N=C(\N)c1ccc(-c2ncc(Cl)c(Nc3cc(C4CC4)[nH]n3)n2)s1` [Compound 205, 5-(5-chloro-4-(5-cyclopropyl-1H-pyrazol-3-ylamino)pyrimidin-2-yl)thiophene-2-carboximidamide]: the “Ki Values” in test [1] is “A, B**”. In addition, the MIC values entry in test [2] is “B, C”.
Take `O=S(=O)(NC1CC1)c1ccc(-c2ncc(Cl)c(Nc3cc(C4CC4)[nH]n3)n2)s1` [Compound 139, 5-[5-chloro-4-[(5-cyclopropyl-1H-pyrazol-3-yl)amino]-pyrimidin-2-yl]-N-cyclopropyl-thiophene-2-sulfonamide]: in test [1], the Ki lay in the range of 10 to 50 nM. Also, in test [2], the MIC values entry was “B+, C”.

Source of the values: US20110053916A1 (Vertex Pharmaceuticals Incorporated, priority 2009, published 2011).
